# Results: ChEMBL document CHEMBL1201862, “PubChem BioAssay data set” (2004)
#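 96-well plates; 48 h exposure; 5 concentrations. Endpoints by linear interpolation between flanking doses. Not reached: highest tested concentration assigned. Abbreviation: GI50, concentration required for 50% inhibition of growth.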 Calls of active or inactive are those of the source. Cut-off read from the data, not from the text of the source: active = GI50 up to about 1.1 µM and inactive = higher.
# Columns and labels:
# Assay in all cases: DTP human tumour cell line panel, 48 h
# LOX IMVI = system: LOX IMVI
# SF-268 = system: SF-268
# OVCAR-8 = system: OVCAR-8
# NCI-H226 = system: NCI-H226
# OVCAR-4 = system: OVCAR-4
# SK-MEL-5 = system: SK-MEL-5
# NCI-H460 = system: NCI-H460
# EKVX = system: EKVX
# SN12C = system: SN12C
# UACC-62 = system: UACC-62
# NCI-H522 = system: NCI-H522
# CAKI-1 = system: CAKI-1
# SW-620 = system: SW-620
# UACC-257 = system: UACC-257
# SNB-19 = system: SNB-19
# RPMI-8226 = system: RPMI-8226
# KM12 = system: KM12
# HCC 2998 = system: HCC 2998
# HCT-15 = system: HCT-15
# SK-MEL-2 = system: SK-MEL-2
compound,measurement,setting,value
O=C(NC1C=Nc2ccc([N+](=O)[O-])cc2NC1=O)c1cc(Cl)cc([N+](=O)[O-])c1 (stereo not given),GI50,LOX IMVI,> 100 µM (inactive)
same,GI50,SF-268,> 100 µM (inactive)
same,GI50,OVCAR-8,> 100 µM (inactive)
same,GI50,NCI-H226,> 100 µM (inactive)
same,GI50,OVCAR-4,> 100 µM (inactive)
same,GI50,SK-MEL-5,> 100 µM (inactive)
same,GI50,NCI-H460,> 100 µM (inactive)
same,GI50,EKVX,94.8 µM (inactive)
same,GI50,SN12C,> 100 µM (inactive)
same,GI50,UACC-62,44.2 µM (inactive)
same,GI50,NCI-H522,8.65 µM (inactive)
same,GI50,CAKI-1,> 100 µM (inactive)
same,GI50,SW-620,> 100 µM (inactive)
same,GI50,UACC-257,> 100 µM (inactive)
same,GI50,SNB-19,> 100 µM (inactive)
same,GI50,RPMI-8226,44.2 µM (inactive)
same,GI50,KM12,54.3 µM (inactive)
same,GI50,HCC 2998,> 100 µM (inactive)
same,GI50,HCT-15,> 100 µM
same,GI50,SK-MEL-2,> 100 µM (inactive)
